ChEMBL document CHEMBL2046334, “New farnesyltransferase inhibitors in the phenothiazine series” (Bioorg Med Chem Lett, 2012)
The source made the active and inactive calls. The rule behind the calls is not given here.

What was measured:
[1] = target: T1, Protein farnesyltransferase (Homo sapiens, UniProt P49354+P49356); test: Inhibition of partially purified human recombinant FTase at 100 uM measured for 15 mins by automated fluorescence based assay relative to control; format: protein-complex assay
[2] = target: T1, Protein farnesyltransferase; test: Inhibition of partially purified human recombinant FTase measured for 15 mins by automated fluorescence based assay; format: protein-complex assay
[3] = test system: SK-MEL-5; test: Growth inhibition of human SK-MEL-5 cells at 10 uM after 48 hrs by sulforhodamine B assay relative to control; format: functional; conditions: SK-MEL-5, 48 h, read-out: GI
[4] = test system: SNB-75; test: Growth inhibition of human SNB75 cells at 10 uM after 48 hrs by sulforhodamine B assay relative to control; format: functional; conditions: SNB-75, 48 h, read-out: GI
[5] = test system: T47D; test: Growth inhibition of human T47D cells at 10 uM after 48 hrs by sulforhodamine B assay relative to control; format: functional; conditions: read-out: GI
[6] = test system: LOX IMVI; test: Growth inhibition of human LOXIMVI cells at 10 uM after 48 hrs by sulforhodamine B assay relative to control; format: functional; conditions: for inhibition of growth at 10 µM: read-out: GI
[7] = test system: RPMI-8226; test: Growth inhibition of human RPMI8226 cells at 10 uM after 48 hrs by sulforhodamine B assay relative to control; format: functional; conditions: RPMI-8226, 48 h, read-out: GI
[8] = test system: MOLT-4; test: Growth inhibition of human MOLT4 cells at 10 uM after 48 hrs by sulforhodamine B assay relative to control; format: functional; conditions: MOLT-4, 48 h, read-out: GI
[9] = test system: HL-60(TB); test: Growth inhibition of human HL-60(TB) cells at 10 uM after 48 hrs by sulforhodamine B assay relative to control; format: functional; conditions: HL-60, 48 h, read-out: GI
[10] = test system: CAKI-1; test: Growth inhibition of human Caki1 cells at 10 uM after 48 hrs by sulforhodamine B assay relative to control; format: functional; conditions: CAKI-1, 48 h, read-out: GI
[11] = test system: HCT-15; test: Growth inhibition of human HCT15 cells at 10 uM after 48 hrs by sulforhodamine B assay relative to control; format: functional; conditions: for inhibition of growth at 10 µM: HCT-15, 48 h, read-out: GI
[12] = test system: EKVX; test: Growth inhibition of human EKVX cells at 10 uM after 48 hrs by sulforhodamine B assay relative to control; format: functional; conditions: for inhibition of growth at 10 µM: read-out: GI
[13] = test system: CCRF-CEM; test: Growth inhibition of human CCRF-CEM cells at 10 uM after 48 hrs by sulforhodamine B assay relative to control; format: functional; conditions: read-out: GI
[14] = test system: UACC-62; test: Growth inhibition of human UACC62 cells at 10 uM after 48 hrs by sulforhodamine B assay relative to control; format: functional; conditions: UACC-62, 48 h, read-out: GI
[15] = test system: OVCAR-8; test: Growth inhibition of human OVCAR8 cells at 10 uM after 48 hrs by sulforhodamine B assay relative to control; format: functional; conditions: for inhibition of growth at 10 µM: OVCAR-8, 48 h, read-out: GI
[16] = test system: MDA-MB-231; test: Growth inhibition of human MDA-MB-231 cells at 10 uM after 48 hrs by sulforhodamine B assay relative to control; format: functional; conditions: MDA-MB-231, 48 h, read-out: GI
[17] = test system: PC-3; test: Growth inhibition of human PC3 cells at 10 uM after 48 hrs by sulforhodamine B assay relative to control; format: functional; conditions: PC-3, 48 h, read-out: GI
[18] = test system: UO-31; test: Growth inhibition of human UO31 cells at 10 uM after 48 hrs by sulforhodamine B assay relative to control; format: functional; conditions: UO-31, 48 h, read-out: GI

With `N#Cc1ccc(C(=O)Cn2cc(CNC(=O)CN3c4ccccc4Sc4ccccc43)nn2)cc1` the inhibition [1] was 24.9%.

Compound `O=C(CN1c2ccccc2Sc2ccccc21)OCc1cn(CC(=O)c2ccc(Br)cc2)nn1` has an inhibition [1] of 35.5%.

With `N#Cc1ccc(C(=O)Cn2cc(COC(=O)CN3c4ccccc4Sc4ccccc43)nn2)cc1` the inhibition [1] was 20.7%.

Compound `O=C(CCN1c2ccccc2Sc2ccccc21)OCc1cn(CC(=O)c2ccc(F)cc2)nn1` has an inhibition [1] of 35.2%.

With `O=C(CN1c2ccccc2Sc2ccccc21)NCc1cn(CC(=O)c2ccc(Cl)cc2)nn1` the inhibition [1] was 40%.

Work on `Cc1ccc(C(=O)Cn2cc(CNC(=O)CCN3c4ccccc4Sc4ccccc43)nn2)cc1` yielded an inhibition [1] of 44.2%.

`COc1ccc(C(=O)Cn2cc(CNC(=O)CCN3c4ccccc4Sc4ccccc43)nn2)cc1` showed an inhibition [1] of 29.3%.

In the case of `O=C(CCN1c2ccccc2Sc2ccccc21)OCc1cn(CC(=O)c2ccc(Cl)cc2)nn1`, the IC50 [2] is reported as 1.5 µM.

In the case of `O=C(CCN1c2ccccc2Sc2ccccc21)NCc1cn(CC(=O)c2ccc(Cl)cc2)nn1`, the inhibition of growth at 10 µM [3] is reported as 13%, the inhibition of growth at 10 µM [4] is reported as 20% and the inhibition of growth at 10 µM [5] is reported as 22%. For the same compound, the inhibition of growth at 10 µM [6] was 9%, the IC50 [2] was 7.7 µM and the inhibition of growth at 10 µM [7] was 19%. For the same compound, the inhibition of growth at 10 µM [8] was 40%, the inhibition of growth at 10 µM [9] was 68% and the inhibition of growth at 10 µM [10] was 32%. It also gave an inhibition of growth at 10 µM [11] of 8%, an inhibition of growth at 10 µM [12] of 30% and an inhibition of growth at 10 µM [13] of 19%. For the same compound, the inhibition of growth at 10 µM [14] was 26%, the inhibition of growth at 10 µM [15] was 17% and the inhibition of growth at 10 µM [16] was 4%. It also gave an inhibition of growth at 10 µM [17] of 38% and an inhibition of growth at 10 µM [18] of 36%.

`O=C(CCN1c2ccccc2Sc2ccccc21)NCc1cn(CC(=O)c2ccc(Br)cc2)nn1` showed an inhibition of growth at 10 µM [3] of 24%, an inhibition of growth at 10 µM [4] of 18% and an inhibition of growth at 10 µM [5] of 29%. For the same compound, the inhibition of growth at 10 µM [6] was 17%, the IC50 [2] was 8.3 µM and the inhibition of growth at 10 µM [7] was 15%. It also gave an inhibition of growth at 10 µM [8] of 34%, an inhibition of growth at 10 µM [9] of 41% and an inhibition of growth at 10 µM [10] of 37%. For the same compound, the inhibition of growth at 10 µM [11] was 7%, the inhibition of growth at 10 µM [12] was 24% and the inhibition of growth at 10 µM [13] was 18%. For the same compound, the inhibition of growth at 10 µM [14] was 29%, the “growth inhibition (GI)” value [15] was “inactive” and the inhibition of growth at 10 µM [16] was 14%. For the same compound, the inhibition of growth at 10 µM [17] was 42% and the inhibition of growth at 10 µM [18] was 42%.

`N#Cc1ccc(C(=O)Cn2cc(COC(=O)CCN3c4ccccc4Sc4ccccc43)nn2)cc1` was tested, and the inhibition [1] was 55.1%.

Work on `O=C(CCN1c2ccccc2Sc2ccccc21)NCc1cn(CC(=O)N2c3ccccc3Sc3ccccc32)nn1` yielded an inhibition [1] of 0%.

With `N#Cc1ccc(C(=O)Cn2cc(CNC(=O)CCN3c4ccccc4Sc4ccccc43)nn2)cc1` the IC50 [2] was 5.2 µM.

`O=C(CCN1c2ccccc2Sc2ccccc21)NCc1cn(CC(=O)c2ccc(F)cc2)nn1` gave an inhibition of growth at 10 µM [3] of 14%, an inhibition of growth at 10 µM [4] of 19% and an inhibition of growth at 10 µM [5] of 7%. For the same compound, the inhibition of growth at 10 µM [6] was 12%, the inhibition of growth at 10 µM [7] was 3% and the inhibition of growth at 10 µM [8] was 38%. For the same compound, the inhibition of growth at 10 µM [9] was 20%, the inhibition of growth at 10 µM [10] was 17% and the “growth inhibition (GI)” value [11] was “inactive”. For the same compound, the inhibition [1] was 52.6%, the inhibition of growth at 10 µM [12] was 22% and the inhibition of growth at 10 µM [13] was 20%. For the same compound, the inhibition of growth at 10 µM [14] was 14%, the “growth inhibition (GI)” value [15] was “inactive” and the inhibition of growth at 10 µM [16] was 3%. For the same compound, the inhibition of growth at 10 µM [17] was 26% and the inhibition of growth at 10 µM [18] was 18%.

In the case of `O=C(CN1c2ccccc2Sc2ccccc21)NCc1cn(CC(=O)N2c3ccccc3Sc3ccc(Cl)cc32)nn1`, the inhibition [1] is reported as 0%.

For `Cc1ccc(C(=O)Cn2cc(CNC(=O)CN3c4ccccc4Sc4ccccc43)nn2)cc1`, the inhibition [1] was 19%.

`Cc1ccc(C(=O)Cn2cc(COC(=O)CCN3c4ccccc4Sc4ccccc43)nn2)cc1` was tested, and the inhibition [1] was 10.7%.

Work on `O=C(CCN1c2ccccc2Sc2ccccc21)OCc1cn(CC(=O)c2ccc(Br)cc2)nn1` yielded an IC50 [2] of 1.3 µM.

Compound `O=C(CN1c2ccccc2Sc2ccccc21)NCc1cn(CC(=O)c2ccc(Br)cc2)nn1` has an inhibition of growth at 10 µM [3] of 5%, an inhibition of growth at 10 µM [4] of 18% and an inhibition of growth at 10 µM [5] of 12%. The “growth inhibition (GI)” value [6] was “inactive”, the IC50 [2] was 24.3 µM and the inhibition of growth at 10 µM [7] was 22%. For the same compound, the inhibition of growth at 10 µM [8] was 42%, the inhibition of growth at 10 µM [9] was 13% and the inhibition of growth at 10 µM [10] was 13%. For the same compound, the inhibition of growth at 10 µM [11] was 16%, the “growth inhibition (GI)” value [12] was “inactive” and the inhibition of growth at 10 µM [13] was 17%. It also gave an inhibition of growth at 10 µM [14] of 25%, an inhibition of growth at 10 µM [15] of 6% and an inhibition of growth at 10 µM [16] of 9%. The inhibition of growth at 10 µM [18] was 13%.

`COc1ccc(C(=O)Cn2cc(CNC(=O)CN3c4ccccc4Sc4ccccc43)nn2)cc1` was tested, and the inhibition [1] was 24.4%.

Work on `COc1ccc(C(=O)Cn2cc(COC(=O)CCN3c4ccccc4Sc4ccccc43)nn2)cc1` yielded an inhibition [1] of 22.3%.

Compound `O=C(CN1c2ccccc2Sc2ccccc21)NCc1cn(CC(=O)N2c3ccccc3Sc3ccccc32)nn1` has an inhibition [1] of 0%.

For `O=C(CN1c2ccccc2Sc2ccccc21)OCc1cn(CC(=O)c2ccc(F)cc2)nn1`, the inhibition [1] was 31.9%.

`O=C(CN1c2ccccc2Sc2ccccc21)NCc1cn(CC(=O)c2ccc(F)cc2)nn1` was tested, and the inhibition [1] was 0%.
